Data published in patent US9951060B2, “2-acylaminothiazole derivative or salt thereof” (ASTELLAS PHARMA INC., priority 2014, dated 2018).

Legend:
[1] = target: T1, human c-Mpl-introduced Ba/F3 cell (Homo sapiens, UniProt P40238); test: Test Example 2: human c-Mpl-introduced Ba/F3 cell proliferative activity; format: cell-based; conditions: concentration exhibiting 30% proliferation; 100% = positive control (Example 315 of Patent Document 1) at 1 μM
T1 construct: expressed in transfected cells
T1 sequence (P40238 26-635): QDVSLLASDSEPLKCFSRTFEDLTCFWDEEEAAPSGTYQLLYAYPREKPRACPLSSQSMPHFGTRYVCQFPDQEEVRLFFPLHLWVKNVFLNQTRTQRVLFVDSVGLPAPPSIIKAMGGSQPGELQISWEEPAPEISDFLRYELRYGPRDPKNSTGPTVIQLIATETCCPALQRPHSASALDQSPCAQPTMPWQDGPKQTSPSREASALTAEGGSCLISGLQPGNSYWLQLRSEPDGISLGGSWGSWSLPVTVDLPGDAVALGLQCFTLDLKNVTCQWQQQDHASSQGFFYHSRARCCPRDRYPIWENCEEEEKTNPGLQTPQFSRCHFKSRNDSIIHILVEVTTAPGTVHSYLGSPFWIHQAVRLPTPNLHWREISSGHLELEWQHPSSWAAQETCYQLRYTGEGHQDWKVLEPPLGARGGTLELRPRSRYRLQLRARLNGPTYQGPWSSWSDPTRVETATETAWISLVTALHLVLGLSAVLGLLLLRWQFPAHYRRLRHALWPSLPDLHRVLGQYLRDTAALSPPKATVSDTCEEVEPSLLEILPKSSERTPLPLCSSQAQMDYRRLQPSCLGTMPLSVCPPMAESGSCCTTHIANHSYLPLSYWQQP
Outline: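 Ba/F3 cells stably expressing human c-Mpl seeded at 1×10^4 cells/well with test substance (100 nM to 10 μM final) in RPMI-1640/10% FBS, overnight at 37 °C. Cell number by WST-type kit absorbance at 450 nm after ~5 h; proliferation % relative to untreated (0%) and reference agonist at 1 μM (100%).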

[2] = system: rat isolated bladder; test: Test Example 3: effect on electrical field stimulation-induced contraction in rat isolated bladder; conditions: 10 μM test substance; AUC of contraction, value before treatment = 100%; SD female rat bladder
Procedure: Test Example 3: Effect on Electrical Field Stimulation-Induced Contraction in Rat Isolated Bladder
As an effect on the nerve stimulation-dependent bladder contraction in in vitro, the effect of the Example compounds of the present invention in the electrical field stimulation-induced contraction of the rat isolated bladder was measured by the following method. That is, a bladder specimen having a width of about 2 mm and a length of about 10 mm in the longitudinal direction from the bladder isolated from a Sprague-Dawley (SD) female rat (Japan SLC, Inc.) was prepared. The prepared bladder specimen was suspended in an organ bath filled with 10 mL of a Krebs-Henseleite solution. The Krebs-Henseleite solution was aerated at 95% 02 and 5% CO2, and kept at 37° C. After carrying out stabilization at an initial tension of 1 g, the contraction was caused twice with 60 mM KCl. After stabilization of the specimen with a Krebs-Henseleite solution, the contraction was caused by carrying out electrical field stimulation at 20 V with an electrical stimulation device (Nihon Kohden) (a stimulation frequency of 8 Hz, a pulse width of 0.3 msec, and a stimulation time of 10 seconds). By repeating the transmural electrical stimulation at an interval of 2 minutes, a voltage was adjusted to obtain a contraction height of approximately 50% of the contractile response at 20 V. After the contraction by electrical field stimulation had been stabilized, 10 μL of the test substances dissolved in 100% dimethyl sulfoxide in advance (final concentrations of 3 μM, 10 μM, and 30 μM) was added thereto. The test substances were cumulatively administered at the following concentrations after the low-concentration contractile response had been stabilized. The response was taken into a personal computer through a PowerLab (registered trademark) (AD Instruments, Inc.), and analyzed by LabChart (registered trademark) (AD Instruments, Inc.). When the area under the response (area under curve, AUC) in each contraction response was calculated and the value before treatment with the test substance was taken as 100%, the enhancement rate (% of pre) of the isolated bladder contractions after treatment with the test substance was calculated.

[3] = target: human muscarinic M3 receptor (Homo sapiens, UniProt P20309)
Sequence of human muscarinic M3 receptor (P20309 whole entry): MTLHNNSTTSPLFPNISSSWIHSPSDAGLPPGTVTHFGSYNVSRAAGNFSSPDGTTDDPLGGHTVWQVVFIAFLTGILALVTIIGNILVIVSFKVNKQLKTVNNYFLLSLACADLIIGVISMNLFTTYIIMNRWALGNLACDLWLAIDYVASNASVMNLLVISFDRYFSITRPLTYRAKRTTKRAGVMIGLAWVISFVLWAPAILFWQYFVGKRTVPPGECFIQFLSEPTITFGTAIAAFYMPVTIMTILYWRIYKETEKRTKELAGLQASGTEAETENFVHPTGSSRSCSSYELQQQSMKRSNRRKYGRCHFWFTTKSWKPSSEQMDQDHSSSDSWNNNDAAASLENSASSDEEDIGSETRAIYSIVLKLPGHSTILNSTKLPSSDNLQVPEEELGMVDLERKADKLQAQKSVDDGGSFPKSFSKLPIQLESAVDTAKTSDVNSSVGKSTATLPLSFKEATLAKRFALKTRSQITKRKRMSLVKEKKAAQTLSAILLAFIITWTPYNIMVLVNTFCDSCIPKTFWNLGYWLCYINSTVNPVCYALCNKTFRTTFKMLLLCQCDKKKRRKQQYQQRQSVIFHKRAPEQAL
Excerpt: Test Example 1: Evaluation of Muscarinic M3 Receptor Positive Allosteric Modulator Activity
a) Construction of Vector Expressing Human Muscarinic M3 Receptor
A human muscarinic M3 receptor gene (GenBank Accession No.: NM_000740.2) was introduced into an expression vector pcDNA3.1™ (Life Technologies).
b) Construction of Cells Stably Expressing Human Muscarinic M3 Receptor
A vector expressing a human muscarinic M3 receptor was introduced into a CHO—K1 cell (ATCC No.: CCL-61). The introduction was carried out according to the attached instructions, using a transfection reagent, Lipofectoamine (registered trademark) 2000 Reagent (Life Technologies). The cells were incubated in an alpha Modified Eagle Minimum Essential Medium (α-MEM) including 2 mM glutamine, 10% fetal bovine serum, and 2.0 mg/mL Geneticin (registered trademark) (Life Technologies) for 4 weeks to acquire a drug-resistant clone.
c) Measurement of Intracellular Ca^2+ Concentration
The cells obtained in b) above were suspended in an α-MEM including 2 mM glutamine, 10% fetal bovine serum, and 0.2 mg/mL Geneticin (registered trademark) to the amount from 1.2 to 1.5×10^4 cells/well the day before the experiment, dispensed into a 384-well plate (Model No. 355962, BD Biosciences), and incubated overnight at 37° C. and 5% CO2. The medium was replaced with a loading buffer (an assay buffer (Hank's balanced salt solution (HBSS), 1 g/L BSA, 20 mM HEPES (pH 7.5), and 2.5 mM probenecid), including 3.1 μM Fluo 4-AM (Dojindo Laboratories) and incubated for about 2 hours at room temperature. Thereafter, the cells were washed with a plate washer ELx405™ (BIO-TEK Instrument, Inc.) set with the assay buffer, and set in an intracellular Ca^2+ concentration measuring system (FLIPR^tetra (registered trademark), Molecular Device Co.). The test substances (final concentration of 1 μM or 10 μM) and carbachol (Sigma, final concentration of 0.0024 nM to 10 μM) which had each been dissolved in the assay buffer in advance were set in a FLIPR^tetra (registered trademark). The test substances were added to the cells in the device and after about 5 minutes, carbachol was added to the cells. An increase rate of the intracellular Ca^2+ concentration by carbachol was measured (excitement wavelength of 470 nm to 495 nm and a fluorescence wavelength of 515 nm to 575 nm).
For the muscarinic M3 receptor-positive allosteric modulator activity, a shift toward a lower concentration side of a carbachol concentration-response curve by the test substance was used as an index. […] For example, when the EC50 value of carbachol in the absence of the test substance was 0.1 μM and the EC50 value of carbachol in the presence of the test substance was 0.01 μM, the value of the muscarinic M3 receptor-positive allosteric modulator activity becomes 10, showing that the test substance causes a 10-fold shift in the EC50 value toward to the low concentration side.

SMILES	human c-Mpl-introduced Ba/F3 cell proliferative activity EC30 [1]	Enhancement rate (% of pre) of isolated bladder contractions [2]	muscarinic M3 receptor-positive allosteric modulator activity, 1 μM (-fold shift) [3]	muscarinic M3 receptor-positive allosteric modulator activity, 10 μM (-fold shift) [3]
C[C@@H]1CCCN1Cc1sc(NC(=O)c2cnc(N3CCN(CCC(=O)O)CC3)cn2)nc1-c1ccc(Cl)c(C(F)(F)F)c1 [Example 15]	>10 µM	124 % of pre	31 -fold shift	159 -fold shift
CC[C@@H]1CCCN1Cc1sc(NC(=O)c2cnc(N3CCN(CCC(=O)O)C[C@H]3C)cn2)nc1-c1ccc(OC(C)C)c(C(F)(F)F)c1 [Example 135]	>10 µM	139 % of pre	25 -fold shift	204 -fold shift
CC[C@@H]1CCCN1Cc1sc(NC(=O)c2cnc(N3CCN(CCC(=O)O)CC3)cn2)nc1-c1ccc(OC)c(C(F)(F)F)c1 [Example 42]	>10 µM	158 % of pre	39 -fold shift	141 -fold shift
CC[C@@H]1CCCN1Cc1sc(NC(=O)c2cnc(N3CCN(CCC(=O)O)C[C@@H]3C)cn2)nc1-c1cc(Cl)cs1 [Example 28]	5.3 µM	123 % of pre	36 -fold shift	108 -fold shift
C[C@@H]1CCCN1Cc1sc(NC(=O)c2cnc(N3CCN(CCC(=O)O)CC3)cn2)nc1-c1cc(C2CC2)cc(C(F)(F)F)c1 [Example 67]	>10 µM	116 % of pre	40 -fold shift	114 -fold shift
CCOc1ccc(-c2nc(NC(=O)c3cnc(N4CCN(CCC(=O)O)C[C@H]4C)cn3)sc2CN2CCC[C@H]2CC)cc1C(F)(F)F [Example 133]	>10 µM	151 % of pre	30 -fold shift	164 -fold shift
C[C@@H]1CCCN1Cc1sc(NC(=O)c2cnc(N3CCN(CC(=O)O)C[C@H]3C)cn2)nc1-c1cc(F)cc(C(F)(F)F)c1 [Example 141]	>10 µM	121 % of pre	45 -fold shift	159 -fold shift
C[C@@H]1CCCN1Cc1sc(NC(=O)c2cnc(N3CCN(CCC(=O)O)CC3)cn2)nc1-c1ccc(F)c(C(F)(F)F)c1 [Example 60]	9.7 µM	144 % of pre	33 -fold shift	235 -fold shift
C[C@@H]1CCCN1Cc1sc(NC(=O)c2cnc(N3CCN(CCCC(=O)O)CC3)cn2)nc1-c1cc(F)cc(C(F)(F)F)c1 [Example 21]	>10 µM	141 % of pre	25 -fold shift	149 -fold shift
C[C@@H]1CCCN1Cc1sc(NC(=O)c2cnc(N3CCN(CC(=O)O)CC3)cn2)nc1-c1ccc(F)c(C(F)(F)F)c1 [Example 61]	1.3 µM	176 % of pre	35 -fold shift	229 -fold shift
COc1cc(-c2nc(NC(=O)c3cnc(N4CCN(CCC(=O)O)CC4)cn3)sc2CN2CCC[C@H]2C)cc(C(F)(F)F)c1 [Example 52]	>10 µM	132 % of pre	36 -fold shift	196 -fold shift
C[C@@H]1CC[C@@H](C)N1Cc1sc(NC(=O)c2cnc(N3CCN(CCC(=O)O)CC3)cn2)nc1-c1cc(F)cc(C(F)(F)F)c1 [Example 119]	>10 µM	154 % of pre	110 -fold shift	503 -fold shift
C[C@@H]1CCCN1Cc1sc(NC(=O)c2cnc(N3CCN(CCC(=O)O)CC3)cn2)nc1-c1cc(Cl)cs1 [Example 82]	>10 µM	158 % of pre	11 -fold shift	43 -fold shift
Cc1cc(OC(F)(F)F)cc(-c2nc(NC(=O)c3cnc(N4CCN(C(C)C(=O)O)CC4)cn3)sc2CN2CCC[C@H]2C)c1 (stereo partly shown) [Example 48]	>10 µM	143 % of pre	27 -fold shift	113 -fold shift
C[C@@H]1CCCN1Cc1sc(NC(=O)c2cnc(N3CCN(CCC(=O)O)CC3)cn2)nc1-c1cc(Cl)cc(C(F)(F)F)c1 [Example 11]	>10 µM	123 % of pre	33 -fold shift	226 -fold shift
CC[C@@H]1CCCN1Cc1sc(NC(=O)c2cnc(N3CCN(CCC(=O)O)[C@H](C)C3)cn2)nc1-c1cc(Cl)cs1 [Example 143]	7.8 µM	140 % of pre	65 -fold shift	81 -fold shift
